The source of these data is patent publication US9523100B2, “Pesticidal compositions and related methods” (DOW AGROSCIENCES LLC, priority 2013, dated 2016).

Molecules are shown by their SMILES.

Test [1] concerns Sweetpotato Whitefly-Crawler (WF) (Bemisia tabaci) (BEMITA). Put plainly: Insecticidal test for Sweetpotato Whitefly-Crawler (WF) in foliar spray assay on cotton plants. It is filed as in vivo. The following applies: 216 h, 200 ppm foliar spray on cotton plants, graded after 9 days, Abbott corrected % control, read-out: WF 200 ppm, % Control (or Mortality) rating. An outline of the steps: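 Cotton plants carrying 200–400 whitefly eggs sprayed to run-off on both leaf surfaces at 200 ppm (acetone/0.025% Tween 20), four plants per treatment. After 9 days at about 25 °C, live 3rd–4th instar nymphs counted; Abbott-corrected percent control versus solvent check.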

For test [2], the system named is Green Peach Aphid (GPA) (Myzus persicae) (MYZUPE). The test is described as follows: Bioassay for Green Peach Aphid (GPA), foliar spray on cabbage seedlings. The class given is in vivo. The following applies: 72 h, 200 ppm foliar spray on cabbage seedlings, graded after three days, Abbott corrected % control, read-out: GPA 200 ppm, % Control (or Mortality) rating. An outline of the steps:
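Cabbage seedlings infested with 20-50 GPA (wingless adults and nymphs) one day before spraying to runoff with 200 ppm compound; four pots per treatment. Live aphids counted after three days at ~25° C; percent control by Abbott's correction against solvent-sprayed plants.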

On to `CCN(C(=O)CC/C(C)=N/OCCCCF)c1cn(-c2cccnc2)nc1Cl` [FA20, (E/Z)-N-(3-chloro-1-(pyridin-3-yl)-1H-pyrazol-4-yl)-N-ethyl-4-((4-fluorobutoxy)imino)pentanamide], for which the mortality at 200 ppm in test [1] and in test [2] was 80 to 100% in each case.
`CCN(C(=O)CCC(=O)N(C)CC#N)c1cn(-c2cccnc2)nc1Cl` [Compound F55, N1-(3-Chloro-1-(pyridin-3-yl)-1H-pyrazol-4-yl)-N4-(cyanomethyl)-N1-ethyl-N4-methylsuccinamide]: the figures for the mortality at 200 ppm in test [1] and in test [2] were 80 to 100% and 0 to 80%, respectively.
Take `O=C(CCC(=O)N(CC1CC1)c1cn(-c2cccnc2)nc1Cl)N1CCCCCC1` [Compound F18, 4-(Azepan-1-yl)-N-(3-chloro-1-(pyridin-3-yl)-1H-pyrazol-4-yl)-N-(cyclopropylmethyl)-4-oxobutanamide]: the mortality at 200 ppm was 80 to 100% in test [1] and 0 to 80% in test [2].
`CCN(C(=O)CCNC(=O)CCC(F)(F)F)c1cn(-c2cccnc2)nc1Cl` [Compound F12, N-(3-((3-Chloro-1-(pyridin-3-yl)-1H-pyrazol-4-yl)(ethyl)amino)-3-oxopropyl)-4,4,4-trifluorobutanamide]: the mortality at 200 ppm in test [1] and in test [2] was 80 to 100% each time.
In the case of `CN(C(=O)[C@H]1C=C[C@@H](NC(=O)OC(C)(C)C)C1)c1cn(-c2cccnc2)nc1Cl` [Compound F116, tert-Butyl ((1S,4R)-4-((3-chloro-1-(pyridin-3-yl)-1H-pyrazol-4-yl)(methyl)carbamoyl)cyclopent-2-en-1-yl)carbamate], the mortality at 200 ppm in test [1] is 80 to 100%; in test [2], 0 to 80%.
In the same order, the values of `CCN(C(=O)CCC1CCN(CCC2CC2(F)F)C1=O)c1cn(-c2cccnc2)nc1Cl` (stereo not drawn) [FA62, N-(3-Chloro-1-(pyridin-3-yl)-1H-pyrazol-4-yl)-3-(1-(2-(2,2-difluorocyclopropyl)ethyl)-2-oxopyrrolidin-3-yl)-N-ethylpropanamide] are 80 to 100% and 80 to 100%.
The corresponding values for `CCN(C(=O)CCC1CN(CC2CC2(F)F)C1=O)c1cn(-c2cccnc2)nc1Cl` (stereo not drawn) [Compound F74, N-(3-Chloro-1-(pyridin-3-yl)-1H-pyrazol-4-yl)-3-1(1-((2,2-difluorocyclopropyl)methyl)-2-oxoazetidin-3-yl)-N-ethylpropanamide] are 80 to 100% and 80 to 100%.
For the compound `CCN(C(=O)CCC1CNC1=O)c1cn(-c2cccnc2)nc1Cl` (stereo not drawn) [Compound F50], the figures for the mortality at 200 ppm in test [1] and in test [2] were 80 to 100% and 0 to 80%, respectively.
The corresponding values for `CCN(C(=O)CCCC1CNC1=O)c1cn(-c2cccnc2)nc1Cl` (stereo not drawn) [Compound F58] are 80 to 100% and 80 to 100%.
The corresponding values for `CCN(C(=O)CCC(=O)NCC(F)(F)F)c1cn(-c2cccnc2)nc1Cl` [Compound F67, N1-(3-Chloro-1-(pyridin-3-yl)-1H-pyrazol-4-yl)-N1-ethyl-N4-(2,2,2-trifluoroethyl)succinamide] are 80 to 100% and 80 to 100%.
In the same order, the values of `CCOC(=O)N(C)CCC(=O)N(CC)c1cn(-c2cccnc2)nc1Cl` [Compound F42, Ethyl (3-((3-chloro-1-(pyridin-3-yl)-1H-pyrazol-4-yl)(ethyl)amino)-3-oxopropyl)(methyl)carbamate] are 80 to 100% and 80 to 100%.
For `CCN(C(=O)C(C)N(C)C(C)=O)c1cn(-c2cccnc2)nc1Cl` (stereo not drawn) [Compound F96, N-(3-Chloro-1-(pyridin-3-yl)-1H-pyrazol-4-yl)-N-ethyl-2-(N-methylacetamido)propanamide], the mortality at 200 ppm in test [1] and in test [2] was 80 to 100% throughout.
`CCN(C(=O)CC/C(C)=N/OCCC1CC1(F)F)c1cn(-c2cccnc2)nc1Cl` (stereo not drawn) [FA50, (E)-N-(3-Chloro-1-(pyridin-3-yl)-1H-pyrazol-4-yl)-4-((2-(2,2-difluorocyclopropyl)ethoxy)imino)-N-ethylpentanamide]: the mortality at 200 ppm in test [1] and in test [2] was 80 to 100% in each case.
In the case of `CCN(C(=O)CCC(=O)N1CCCC1)c1cn(-c2cccnc2)nc1Cl` [Compound F106, N-(3-Chloro-1-(pyridin-3-yl)-1H-pyrazol-4-yl)-N-ethyl-4-oxo-4-(pyrrolidin-1-yl)butanamide], the mortality at 200 ppm in test [1] and in test [2] was 0 to 80% each time.
Consider `CCN(C(=O)CNC(=O)CC(F)(F)F)c1cn(-c2cccnc2)nc1Cl` [Compound F57, N-(2-((3-Chloro-1-(pyridin-3-yl)-1H-pyrazol-4-yl)(ethyl)amino)-2-oxoethyl)-3,3,3-trifluoropropanamide], for which the mortality at 200 ppm in test [1] and in test [2] was 80 to 100% each time.
With `CCN(C(=O)CCN1CCSC1=O)c1cn(-c2cccnc2)nc1Cl` [Compound F88, N-(3-Chloro-1-(pyridin-3-yl)-1H-pyrazol-4-yl)-N-ethyl-3-(2-oxothiazolidin-3-yl)propanamide], the mortality at 200 ppm lay within 80 to 100% in test [1] and 0 to 80% in test [2].
In the same order, the values of `CCN(C(=O)C1CN(C(=O)c2cccnc2)C1)c1cn(-c2cccnc2)nc1Cl` [FA17, N-(3-Chloro-1-(pyridin-3-yl)-1H-pyrazol-4-yl)-N-ethyl-1-nicotinoyl azetidine-3-carboxamide] are 0 to 80% and 0 to 80%.
The corresponding values for `CCN(C(=O)CCCC1CN(C)C1=O)c1cn(-c2cccnc2)nc1Cl` (stereo not drawn) [Compound F53, N-(3-Chloro-1-(pyridin-3-yl)-1H-pyrazol-4-yl)-N-ethyl-4-(1-methyl-2-oxoazetidin-3-yl)butanamide] are 80 to 100% and 80 to 100%.
The corresponding values for `CCN(C(=O)C(C)OC(C)=O)c1cn(-c2cccnc2)nc1Cl` (stereo not drawn) [Compound C12, 1-((3-chloro-1-(pyridin-3-yl)-1H-pyrazol-4-yl)(ethyl)amino)-1-oxopropan-2-yl acetate] are 80 to 100% and 80 to 100%.
Regarding `CCN(C(=O)CCN)c1cn(-c2cccnc2)nc1Cl` [Compound C2, 3-amino-N-(3-chloro-1-(pyridin-3-yl)-1H-pyrazol-4-yl)-N-ethylpropanamide], the mortality at 200 ppm in test [1] lay in the range of 80 to 100%; in test [2], 0 to 80%.
Regarding `CCN(C(=O)CN1CCSC1=O)c1cn(-c2cccnc2)nc1Cl` [Compound F10, N-(3-Chloro-1-(pyridin-3-yl)-1H-pyrazol-4-yl)-N-ethyl-2-(2-oxothiazolidin-3-yl)acetamide], the results for the mortality at 200 ppm in test [1] and in test [2] were 80 to 100% and 0 to 80%, respectively.
Regarding `CCN(C(=O)C(C)Cl)c1cn(-c2cccnc2)nc1Cl` (stereo not drawn) [Compound C10, 2-Chloro-N-(3-chloro-1-(pyridin-3-yl)-1H-pyrazol-4-yl)-N-ethylpropanamide], the mortality at 200 ppm in test [1] and in test [2] was 80 to 100% throughout.
`CCN(C(=O)CCN(CC(F)F)C(=O)C1(C)CC1(F)F)c1cn(-c2cccnc2)nc1Cl` (stereo not drawn) [Compound F35, N-(3-((3-Chloro-1-(pyridin-3-yl)-1H-pyrazol-4-yl)(ethyl)amino)-3-oxopropyl)-N-(2,2-difluoroethyl)-2,2-difluoro-1-methylcyclopropane carboxamide]: the mortality at 200 ppm in test [1] and in test [2] was 80 to 100% in each case.
In the case of `CCN(C(=O)C1CCN(C(=O)OC(C)(C)C)CC1)c1cn(-c2cccnc2)nc1Cl` [Compound F110, tert-Butyl 44-(3-chloro-1-(pyridin-3-yl)-1H-pyrazol-4-yl)(ethylcarbamoyl) piperidine-1-carboxylate], the mortality at 200 ppm in test [1] and in test [2] was 80 to 100% each time.
Turning to `CCN(C(=O)C1CCCN(C(=O)C(F)(F)F)C1)c1cn(-c2cccnc2)nc1Cl` (stereo not drawn) [FA41, N-(3-Chloro-1-(pyridin-3-yl)-1H-pyrazol-4-yl)-N-ethyl-1-(2,2,2-trifluoroacetyl)piperidine-3-carboxamide], the mortality at 200 ppm was 0 to 80% in test [1] and 80 to 100% in test [2].
In the same order, the values of `CCN(C(=O)CC1CN(C)C1=O)c1cn(-c2cccnc2)nc1Cl` (stereo not drawn) [Compound F32, N-(3-chloro-1-(pyridin-3-yl)-1H-pyrazol-4-yl)-N-ethyl-2-(1-methyl-2-oxoazetidin-3-yl)acetamide] are 80 to 100% and 80 to 100%.
The corresponding values for `CCN(C(=O)C1CCCN(C(=O)CCC(F)(F)F)C1)c1cn(-c2cccnc2)nc1Cl` (stereo not drawn) [FA43, N-(3-Chloro-1-(pyridin-3-yl)-1H-pyrazol-4-yl)-N-ethyl-1-(4,4,4-trifluorobutanoyl)piperidine-3-carboxamide] are 80 to 100% and 80 to 100%.
Regarding `CCN(C(=O)CCN(C(C)=O)C1CC1)c1cn(-c2cccnc2)nc1Cl` [Compound F9, N-(3-Chloro-1-(pyridin-3-yl)-1H-pyrazol-4-yl)-3-(N-cyclopropylacetamido)-N-ethylpropanamide], the figures for the mortality at 200 ppm in test [1] and in test [2] were 0 to 80% and 80 to 100%, respectively.
The corresponding values for `CC(=O)CCC(=O)N(C)c1cn(-c2cccnc2)nc1C` [FA69, N-methyl-N-(3-methyl-1-(pyridin-3-yl)-1H-pyrazol-4-yl)-4-oxopentanamide] are 80 to 100% and 0 to 80%.
The corresponding values for `CCN(C(=O)CC1CCNC1=O)c1cn(-c2cccnc2)nc1Cl` (stereo not drawn) [FA63] are 80 to 100% and 80 to 100%.
